Measured values: US20220088016A1, “CANCER TREATMENT USING MULTI-TARGETED KINASE INHIBITOR IN COMBINATION OF PROTEIN KINASE BIOMARKERS” (ZHEJIANG CROWNMAB BIOTECH CO. LTD., priority 2019, published 2022)

Assays:
MEK5 = target: T1, MEK5 (Homo sapiens, UniProt Q13163); assay: Kinase profiling; format: binding; conditions: read-out: % Ctrl @ 1000 nM
T1 construct: T7 phage fusion (stated for most kinases of the panel only); made in house; host or cells: T7 phage in E. coli (BL21-derived) or HEK-293 cells
T1 sequence (Q13163 whole entry, the tested form may be a part): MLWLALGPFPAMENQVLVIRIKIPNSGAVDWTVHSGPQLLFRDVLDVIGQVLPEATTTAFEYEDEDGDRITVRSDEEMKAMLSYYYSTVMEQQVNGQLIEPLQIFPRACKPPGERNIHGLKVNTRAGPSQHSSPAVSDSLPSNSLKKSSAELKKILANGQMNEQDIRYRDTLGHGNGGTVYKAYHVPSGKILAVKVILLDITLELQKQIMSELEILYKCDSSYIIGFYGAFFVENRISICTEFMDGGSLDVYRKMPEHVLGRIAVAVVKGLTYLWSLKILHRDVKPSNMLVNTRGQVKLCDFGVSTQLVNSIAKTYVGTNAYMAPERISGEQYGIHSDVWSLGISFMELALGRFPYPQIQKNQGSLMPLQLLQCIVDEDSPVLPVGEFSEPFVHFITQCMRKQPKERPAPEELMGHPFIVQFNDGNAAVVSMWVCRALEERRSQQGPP

ABL2 = ABL2 (Homo sapiens, UniProt P42684); assay: Kinase profiling; format: binding; conditions: read-out: % Ctrl @ 1000 nM
PLK3 = PLK3 (Homo sapiens, UniProt Q9H4B4); assay: Kinase profiling; format: binding; conditions: read-out: % Ctrl @ 1000 nM
[1] = system: CD3 (T cell surface marker); assay: CD3 IHC test in MC-38 tumor; format: in vivo, mouse; conditions: MC-38 tumors; vs vehicle group
Description: MC38 tumor tissues were collected at the end of the in vivo efficacy trial. The tumor tissue was then embedded in paraffin. The expression of CD3/CD4/CD8/F4-80 were tested by immunohistochemistry stain.

ALK = ALK (Homo sapiens, UniProt Q9UM73); assay: Kinase profiling; format: binding; conditions: read-out: % Ctrl @ 1000 nM
ALK, sequence (Q9UM73 19-1620): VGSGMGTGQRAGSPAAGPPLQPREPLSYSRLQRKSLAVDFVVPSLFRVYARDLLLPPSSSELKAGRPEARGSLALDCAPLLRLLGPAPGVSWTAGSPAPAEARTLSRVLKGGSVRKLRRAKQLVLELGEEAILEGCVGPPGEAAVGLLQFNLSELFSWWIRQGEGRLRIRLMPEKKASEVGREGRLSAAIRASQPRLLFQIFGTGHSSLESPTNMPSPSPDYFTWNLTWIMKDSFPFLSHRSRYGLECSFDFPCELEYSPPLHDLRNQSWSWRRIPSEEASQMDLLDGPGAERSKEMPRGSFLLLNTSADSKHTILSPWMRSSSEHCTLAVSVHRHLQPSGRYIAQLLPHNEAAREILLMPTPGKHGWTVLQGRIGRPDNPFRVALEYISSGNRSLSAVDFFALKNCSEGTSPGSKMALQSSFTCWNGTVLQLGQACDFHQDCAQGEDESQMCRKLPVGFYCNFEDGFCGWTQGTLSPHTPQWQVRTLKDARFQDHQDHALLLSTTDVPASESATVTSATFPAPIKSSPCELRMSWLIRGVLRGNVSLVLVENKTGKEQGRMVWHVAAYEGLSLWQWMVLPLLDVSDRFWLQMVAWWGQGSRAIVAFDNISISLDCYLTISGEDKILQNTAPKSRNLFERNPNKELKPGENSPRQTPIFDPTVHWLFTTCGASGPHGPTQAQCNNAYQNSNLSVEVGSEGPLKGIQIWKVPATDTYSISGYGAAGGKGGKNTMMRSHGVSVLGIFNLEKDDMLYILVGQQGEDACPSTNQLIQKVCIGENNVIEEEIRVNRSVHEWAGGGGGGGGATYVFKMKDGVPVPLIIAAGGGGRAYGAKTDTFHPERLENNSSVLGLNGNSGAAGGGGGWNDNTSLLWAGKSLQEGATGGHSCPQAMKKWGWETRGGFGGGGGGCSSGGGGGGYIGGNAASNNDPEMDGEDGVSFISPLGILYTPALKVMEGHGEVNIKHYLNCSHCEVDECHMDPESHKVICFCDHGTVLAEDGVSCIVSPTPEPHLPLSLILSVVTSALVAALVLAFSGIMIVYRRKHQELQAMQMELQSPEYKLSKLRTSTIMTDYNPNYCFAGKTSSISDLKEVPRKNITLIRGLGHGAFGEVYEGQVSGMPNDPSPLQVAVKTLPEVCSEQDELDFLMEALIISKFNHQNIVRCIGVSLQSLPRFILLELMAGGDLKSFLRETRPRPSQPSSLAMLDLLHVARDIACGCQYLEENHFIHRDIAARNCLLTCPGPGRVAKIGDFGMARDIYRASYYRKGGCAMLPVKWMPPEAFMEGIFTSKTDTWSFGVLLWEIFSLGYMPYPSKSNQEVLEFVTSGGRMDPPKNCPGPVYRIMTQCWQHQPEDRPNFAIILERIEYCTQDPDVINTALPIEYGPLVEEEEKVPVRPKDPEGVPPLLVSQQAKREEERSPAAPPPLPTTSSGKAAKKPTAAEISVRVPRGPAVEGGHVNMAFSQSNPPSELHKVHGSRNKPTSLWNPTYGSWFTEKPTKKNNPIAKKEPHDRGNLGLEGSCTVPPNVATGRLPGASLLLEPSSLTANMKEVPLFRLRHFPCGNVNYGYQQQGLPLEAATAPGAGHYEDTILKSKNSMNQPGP

MAP4K4 = MAP4K4 (Homo sapiens, UniProt O95819); assay: Kinase profiling; format: binding; conditions: read-out: % Ctrl @ 1000 nM
CAMK1D = CAMK1D (Homo sapiens, UniProt Q8IU85); assay: Kinase profiling; format: binding; conditions: read-out: % Ctrl @ 1000 nM
[2] = target: ABL1 (Y253F)-phosphorylated (Homo sapiens, UniProt P00519, Y253F); assay: Kinase profiling; format: binding; conditions: read-out: % Ctrl @ 1000 nM
GAK = GAK (Homo sapiens, UniProt O14976); assay: Kinase profiling; format: binding; conditions: read-out: % Ctrl @ 1000 nM
CSF1R-autoinhibited = CSF1R-autoinhibited (Homo sapiens, UniProt P07333); assay: Kinase profiling; format: binding; conditions: read-out: % Ctrl @ 1000 nM
ACVR2A = ACVR2A (Homo sapiens, UniProt P27037); assay: Kinase profiling; format: binding; conditions: read-out: % Ctrl @ 1000 nM
ACVR2A, sequence (P27037 20-513): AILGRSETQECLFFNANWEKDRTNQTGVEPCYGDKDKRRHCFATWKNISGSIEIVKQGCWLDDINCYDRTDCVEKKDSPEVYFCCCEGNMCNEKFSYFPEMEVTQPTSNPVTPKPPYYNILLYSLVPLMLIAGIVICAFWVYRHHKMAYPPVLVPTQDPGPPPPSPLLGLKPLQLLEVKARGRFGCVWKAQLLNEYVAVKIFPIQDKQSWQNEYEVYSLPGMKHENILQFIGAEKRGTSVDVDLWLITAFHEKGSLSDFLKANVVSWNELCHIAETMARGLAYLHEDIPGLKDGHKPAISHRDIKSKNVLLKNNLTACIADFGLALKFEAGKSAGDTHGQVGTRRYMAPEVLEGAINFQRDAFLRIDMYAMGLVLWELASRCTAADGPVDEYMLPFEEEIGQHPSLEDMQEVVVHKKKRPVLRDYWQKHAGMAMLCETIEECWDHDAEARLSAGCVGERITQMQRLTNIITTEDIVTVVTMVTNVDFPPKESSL

[3] = target: ABL1 (H396P)-phosphorylated (Homo sapiens, UniProt P00519, H396P); assay: Kinase profiling; format: binding; conditions: read-out: % Ctrl @ 1000 nM
CDKL3 = CDKL3 (Homo sapiens, UniProt Q8IVW4); assay: Kinase profiling; format: binding; conditions: read-out: % Ctrl @ 1000 nM
BMPR2 = BMPR2 (Homo sapiens, UniProt Q13873); assay: Kinase profiling; format: binding; conditions: read-out: % Ctrl @ 1000 nM
ADCK4 = ADCK4 (Homo sapiens, UniProt Q96D53); assay: Kinase profiling; format: binding; conditions: read-out: % Ctrl @ 1000 nM
PIK3CA (H1047Y) = PIK3CA (H1047Y) (Homo sapiens, UniProt P42336, H1047Y); assay: Kinase profiling; format: binding; conditions: read-out: % Ctrl @ 1000 nM
YSK4 = YSK4 (Homo sapiens, UniProt Q56UN5); assay: Kinase profiling; format: binding; conditions: read-out: % Ctrl @ 1000 nM
MST1R = target: T2, MST1R (Homo sapiens, UniProt Q04912); assay: Kinase profiling; format: binding; conditions: read-out: % Ctrl @ 1000 nM
T2 construct: T7 phage fusion (stated for most kinases of the panel only); made in house; host or cells: T7 phage in E. coli (BL21-derived) or HEK-293 cells

GRK7 = GRK7 (Homo sapiens, UniProt Q8WTQ7); assay: Kinase profiling; format: binding; conditions: read-out: % Ctrl @ 1000 nM
GRK7, sequence (Q8WTQ7 whole entry): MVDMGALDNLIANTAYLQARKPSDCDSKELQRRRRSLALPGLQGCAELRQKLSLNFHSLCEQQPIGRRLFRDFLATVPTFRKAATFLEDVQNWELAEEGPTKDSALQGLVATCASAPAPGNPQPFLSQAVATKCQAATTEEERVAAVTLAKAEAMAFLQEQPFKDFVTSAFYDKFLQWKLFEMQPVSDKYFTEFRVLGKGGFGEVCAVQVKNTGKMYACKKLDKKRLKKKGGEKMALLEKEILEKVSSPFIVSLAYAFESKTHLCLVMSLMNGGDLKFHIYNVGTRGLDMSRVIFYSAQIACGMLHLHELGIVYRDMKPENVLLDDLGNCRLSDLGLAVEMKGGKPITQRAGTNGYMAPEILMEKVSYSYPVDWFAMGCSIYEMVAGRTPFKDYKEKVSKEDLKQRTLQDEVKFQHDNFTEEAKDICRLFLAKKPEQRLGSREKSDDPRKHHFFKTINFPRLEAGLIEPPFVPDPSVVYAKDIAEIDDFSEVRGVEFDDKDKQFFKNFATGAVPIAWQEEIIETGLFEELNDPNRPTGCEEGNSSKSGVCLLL

MARK4 = MARK4 (Homo sapiens, UniProt Q96L34); assay: Kinase profiling; format: binding; conditions: read-out: % Ctrl @ 1000 nM
PIM2 = PIM2 (Homo sapiens, UniProt Q9P1W9); assay: Kinase profiling; format: binding; conditions: read-out: % Ctrl @ 1000 nM
CLK1 = CLK1 (Homo sapiens, UniProt P49759); assay: Kinase profiling; format: binding; conditions: read-out: % Ctrl @ 1000 nM
CLK1, sequence (P49759 whole entry): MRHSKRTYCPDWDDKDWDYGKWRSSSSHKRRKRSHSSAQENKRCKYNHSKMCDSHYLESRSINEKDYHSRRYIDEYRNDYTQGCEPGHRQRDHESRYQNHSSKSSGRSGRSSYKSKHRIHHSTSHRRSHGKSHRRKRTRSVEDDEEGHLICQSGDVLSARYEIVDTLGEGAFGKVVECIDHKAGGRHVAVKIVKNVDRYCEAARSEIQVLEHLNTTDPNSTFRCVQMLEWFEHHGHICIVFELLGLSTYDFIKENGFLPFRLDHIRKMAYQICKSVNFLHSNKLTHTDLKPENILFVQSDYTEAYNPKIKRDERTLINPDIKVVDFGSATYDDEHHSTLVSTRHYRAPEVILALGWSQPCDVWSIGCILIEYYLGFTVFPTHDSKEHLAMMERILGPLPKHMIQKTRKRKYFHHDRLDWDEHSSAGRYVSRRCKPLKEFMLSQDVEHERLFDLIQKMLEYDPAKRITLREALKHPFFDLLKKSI

AURKB = AURKB (Homo sapiens, UniProt Q96GD4); assay: Kinase profiling; format: binding; conditions: read-out: % Ctrl @ 1000 nM
PIK3CA (I800L) = PIK3CA (I800L) (Homo sapiens, UniProt P42336, I800L); assay: Kinase profiling; format: binding; conditions: read-out: % Ctrl @ 1000 nM
MAPKAPK5 = MAPKAPK5 (Homo sapiens, UniProt Q8IW41); assay: Kinase profiling; format: binding; conditions: read-out: % Ctrl @ 1000 nM
MAPKAPK5, sequence (Q8IW41 whole entry): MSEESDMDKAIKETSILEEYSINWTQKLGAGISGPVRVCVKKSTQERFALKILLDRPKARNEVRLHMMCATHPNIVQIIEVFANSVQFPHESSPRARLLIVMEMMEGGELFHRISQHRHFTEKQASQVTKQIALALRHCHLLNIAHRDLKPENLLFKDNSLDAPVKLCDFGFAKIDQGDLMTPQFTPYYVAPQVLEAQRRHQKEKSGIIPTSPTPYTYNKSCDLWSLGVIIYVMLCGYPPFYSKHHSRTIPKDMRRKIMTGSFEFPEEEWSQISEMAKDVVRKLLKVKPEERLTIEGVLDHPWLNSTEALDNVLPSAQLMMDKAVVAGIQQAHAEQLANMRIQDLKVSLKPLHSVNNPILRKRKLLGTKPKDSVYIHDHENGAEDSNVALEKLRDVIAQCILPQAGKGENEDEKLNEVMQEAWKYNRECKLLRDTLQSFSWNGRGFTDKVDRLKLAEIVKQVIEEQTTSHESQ

YANK2 = YANK2 (Homo sapiens, UniProt Q9NY57); assay: Kinase profiling; format: binding; conditions: read-out: % Ctrl @ 1000 nM
NIK = target: T3, NIK (Homo sapiens, UniProt Q99558); assay: Kinase profiling; format: binding; conditions: read-out: % Ctrl @ 1000 nM
T3 construct: T7 phage fusion (said for most assays); made in house

MST3 = target: T4, MST3 (Homo sapiens, UniProt Q9Y6E0); assay: Kinase profiling; format: binding; conditions: read-out: % Ctrl @ 1000 nM
T4 construct: T7 phage fusion (said for most assays); made in house

DYRK1A = DYRK1A (Homo sapiens, UniProt Q13627); assay: Kinase profiling; format: binding; conditions: read-out: % Ctrl @ 1000 nM
CAMK4 = CAMK4 (Homo sapiens, UniProt Q16566); assay: Kinase profiling; format: binding; conditions: read-out: % Ctrl @ 1000 nM
BTK = BTK (Homo sapiens, UniProt Q06187); assay: Kinase profiling; format: binding; conditions: read-out: % Ctrl @ 1000 nM
PIK3CA (H1047L) = PIK3CA (H1047L) (Homo sapiens, UniProt P42336, H1047L); assay: Kinase profiling; format: binding; conditions: read-out: % Ctrl @ 1000 nM
TXK = TXK (Homo sapiens, UniProt P42681); assay: Kinase profiling; format: binding; conditions: read-out: % Ctrl @ 1000 nM
CDK4 = CDK4 (Homo sapiens, UniProt P11802); assay: Kinase profiling; format: binding; conditions: read-out: % Ctrl @ 1000 nM
FAK = FAK (Homo sapiens, UniProt Q05397); assay: Kinase profiling; format: binding; conditions: read-out: % Ctrl @ 1000 nM
ALK (L1196M) = ALK (L1196M) (Homo sapiens, UniProt Q9UM73, L1196M); assay: Kinase profiling; format: binding; conditions: read-out: % Ctrl @ 1000 nM
ALK (L1196M), sequence (Q9UM73 19-1620 L1196M): as the sequence (Q9UM73 19-1620) above, with L1178M counted along it

ANKK1 = ANKK1 (Homo sapiens, UniProt Q8NFD2); assay: Kinase profiling; format: binding; conditions: read-out: % Ctrl @ 1000 nM
ANKK1, sequence (Q8NFD2 whole entry): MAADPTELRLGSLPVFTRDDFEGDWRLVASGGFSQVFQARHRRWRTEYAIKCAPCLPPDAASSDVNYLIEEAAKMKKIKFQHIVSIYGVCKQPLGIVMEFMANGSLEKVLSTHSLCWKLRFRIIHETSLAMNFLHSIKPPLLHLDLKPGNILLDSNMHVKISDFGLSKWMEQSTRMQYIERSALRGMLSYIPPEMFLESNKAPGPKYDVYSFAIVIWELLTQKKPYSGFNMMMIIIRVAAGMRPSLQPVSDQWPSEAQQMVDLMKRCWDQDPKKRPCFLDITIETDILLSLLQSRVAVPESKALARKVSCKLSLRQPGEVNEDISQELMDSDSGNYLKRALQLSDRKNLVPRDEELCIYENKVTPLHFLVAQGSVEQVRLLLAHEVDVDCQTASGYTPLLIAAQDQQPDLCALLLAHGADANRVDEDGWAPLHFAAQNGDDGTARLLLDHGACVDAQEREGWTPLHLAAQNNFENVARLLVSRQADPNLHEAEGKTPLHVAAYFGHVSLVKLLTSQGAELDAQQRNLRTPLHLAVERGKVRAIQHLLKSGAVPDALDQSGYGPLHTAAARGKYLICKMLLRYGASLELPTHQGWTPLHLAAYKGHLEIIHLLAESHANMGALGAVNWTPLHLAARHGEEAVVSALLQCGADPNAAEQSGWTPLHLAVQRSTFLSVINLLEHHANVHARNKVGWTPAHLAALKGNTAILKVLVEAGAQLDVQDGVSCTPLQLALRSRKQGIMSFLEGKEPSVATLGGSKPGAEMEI

CDKL2 = CDKL2 (Homo sapiens, UniProt Q92772); assay: Kinase profiling; format: binding; conditions: read-out: % Ctrl @ 1000 nM

**Q.** For `Cc1cc(Oc2cc(NC(=O)C3CC3)ncn2)ccc1NC(=O)Nc1ccc(Cl)c(C(F)(F)F)c1` [CBT-102], which remaining activity at 1 µM (MEK5) is on record?
**A.** 6.2%

**Q.** And the remaining activity at 1 µM (ABL2)?
**A.** 40%

**Q.** And the remaining activity at 1 µM (PLK3)?
**A.** 97%

**Q.** What about the “effect on T cell surface marker CD3 (IHC)” value [1] of the same molecule?
**A.** no significant effect

**Q.** What about the remaining activity at 1 µM (ALK) of the same molecule?
**A.** 100%

**Q.** And the remaining activity at 1 µM (MAP4K4)?
**A.** 3.4%

**Q.** What about the remaining activity at 1 µM (CAMK1D) of the same molecule?
**A.** 81%

**Q.** What about the remaining activity at 1 µM [2] of the same molecule?
**A.** 57%

**Q.** And the remaining activity at 1 µM (GAK)?
**A.** 100%

**Q.** And the remaining activity at 1 µM (CSF1R-autoinhibited)?
**A.** 60%

**Q.** And the remaining activity at 1 µM (ACVR2A)?
**A.** 100%

**Q.** What about the remaining activity at 1 µM [3] of the same molecule?
**A.** 83%

**Q.** And the remaining activity at 1 µM (CDKL3)?
**A.** 4.3%

**Q.** What about the remaining activity at 1 µM (BMPR2) of the same molecule?
**A.** 82%

**Q.** And the remaining activity at 1 µM (ADCK4)?
**A.** 88%

**Q.** What about the remaining activity at 1 µM (PIK3CA (H1047Y)) of the same molecule?
**A.** 100%

**Q.** What about the remaining activity at 1 µM (YSK4) of the same molecule?
**A.** 9.6%

**Q.** What about the remaining activity at 1 µM (MST1R) of the same molecule?
**A.** 89%

**Q.** And the remaining activity at 1 µM (GRK7)?
**A.** 100%

**Q.** What about the remaining activity at 1 µM (MARK4) of the same molecule?
**A.** 100%

**Q.** And the remaining activity at 1 µM (PIM2)?
**A.** 100%

**Q.** What about the remaining activity at 1 µM (CLK1) of the same molecule?
**A.** 98%

**Q.** What about the remaining activity at 1 µM (AURKB) of the same molecule?
**A.** 49%

**Q.** What about the remaining activity at 1 µM (PIK3CA (I800L)) of the same molecule?
**A.** 91%

**Q.** And the remaining activity at 1 µM (MAPKAPK5)?
**A.** 93%

**Q.** What about the remaining activity at 1 µM (YANK2) of the same molecule?
**A.** 100%

**Q.** And the remaining activity at 1 µM (NIK)?
**A.** 100%

**Q.** And the remaining activity at 1 µM (MST3)?
**A.** 89%

**Q.** What about the remaining activity at 1 µM (DYRK1A) of the same molecule?
**A.** 97%

**Q.** What about the remaining activity at 1 µM (CAMK4) of the same molecule?
**A.** 100%

**Q.** What about the remaining activity at 1 µM (BTK) of the same molecule?
**A.** 77%

**Q.** What about the remaining activity at 1 µM (PIK3CA (H1047L)) of the same molecule?
**A.** 100%

**Q.** What about the remaining activity at 1 µM (TXK) of the same molecule?
**A.** 100%

**Q.** What about the remaining activity at 1 µM (CDK4) of the same molecule?
**A.** 100%

**Q.** What about the remaining activity at 1 µM (FAK) of the same molecule?
**A.** 86%

**Q.** What about the remaining activity at 1 µM (ALK (L1196M)) of the same molecule?
**A.** 94%

**Q.** And the remaining activity at 1 µM (ANKK1)?
**A.** 100%

**Q.** And the remaining activity at 1 µM (CDKL2)?
**A.** 0.45%
